One data set concerns SK-OV-3. In words: Cytotoxicity against human SKOV3 cells. The class given is functional, cell-based.
A short description of data set [1]: Cytotoxicity against human MiaPaCa cells. The conditions noted are these: MIA PaCa-2. The class given is functional, cell-based.
Data set [2] can be described thus: Cytotoxicity against human Hep3B cells. The class given is functional, cell-based, Hep 3B2.
The target in data set [3] is T1, Polyamine deacetylase HDAC10 (Homo sapiens, UniProt Q969S8).
T1 sequence (Q969S8 whole entry): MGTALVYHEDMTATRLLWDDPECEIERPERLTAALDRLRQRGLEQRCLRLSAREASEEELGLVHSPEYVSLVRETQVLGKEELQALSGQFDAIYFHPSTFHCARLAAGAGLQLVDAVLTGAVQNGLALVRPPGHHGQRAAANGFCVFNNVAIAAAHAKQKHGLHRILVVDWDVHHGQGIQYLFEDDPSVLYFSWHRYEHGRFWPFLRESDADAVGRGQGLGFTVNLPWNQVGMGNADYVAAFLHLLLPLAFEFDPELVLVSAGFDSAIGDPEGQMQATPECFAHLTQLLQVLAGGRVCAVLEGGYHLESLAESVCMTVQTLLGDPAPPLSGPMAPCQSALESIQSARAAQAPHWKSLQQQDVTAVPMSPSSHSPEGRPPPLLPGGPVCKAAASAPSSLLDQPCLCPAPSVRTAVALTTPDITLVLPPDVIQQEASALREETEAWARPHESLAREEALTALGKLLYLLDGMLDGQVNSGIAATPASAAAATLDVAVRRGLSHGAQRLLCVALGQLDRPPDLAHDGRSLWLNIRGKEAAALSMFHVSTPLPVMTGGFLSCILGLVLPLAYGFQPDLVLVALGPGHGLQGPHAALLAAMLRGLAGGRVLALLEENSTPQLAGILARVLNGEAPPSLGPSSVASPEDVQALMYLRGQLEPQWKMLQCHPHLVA
Briefly: Inhibition of HDAC10 (unknown origin).

Data set [4] has as its system NCI-H69. In words: Cytotoxicity against human H69 cells. It counts as functional, cell-based.
Data set [5] can be described thus: Cytotoxicity against human H23 cells. It counts as functional, cell-based. Conditions: NCI-H23.
The target of the next data set is Histone deacetylase 2 (Homo sapiens, UniProt Q92769). Briefly: Inhibition of HDAC2 (unknown origin).
Chain of Histone deacetylase 2 (Q92769 whole entry): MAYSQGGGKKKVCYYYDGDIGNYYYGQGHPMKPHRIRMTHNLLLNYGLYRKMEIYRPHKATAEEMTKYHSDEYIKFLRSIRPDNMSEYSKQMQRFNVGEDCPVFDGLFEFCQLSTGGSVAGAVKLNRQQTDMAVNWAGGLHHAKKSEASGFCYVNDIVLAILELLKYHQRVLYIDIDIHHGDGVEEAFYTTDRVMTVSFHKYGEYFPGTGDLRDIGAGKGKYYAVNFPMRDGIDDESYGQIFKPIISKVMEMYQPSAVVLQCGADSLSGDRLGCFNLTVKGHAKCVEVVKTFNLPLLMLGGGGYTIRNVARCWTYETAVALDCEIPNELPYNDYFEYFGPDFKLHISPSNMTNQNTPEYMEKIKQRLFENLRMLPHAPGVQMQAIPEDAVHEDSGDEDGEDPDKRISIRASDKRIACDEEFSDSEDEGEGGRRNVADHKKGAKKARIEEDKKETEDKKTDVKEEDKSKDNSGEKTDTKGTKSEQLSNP
A further data set has as its target Histone deacetylase 3 (Homo sapiens, UniProt O15379). Briefly: Inhibition of HDAC3 (unknown origin).
The target of a further data set is Histone deacetylase 5 (Homo sapiens, UniProt Q9UQL6). Briefly: Inhibition of HDAC5 (unknown origin).
Chain of Histone deacetylase 5 (Q9UQL6 whole entry): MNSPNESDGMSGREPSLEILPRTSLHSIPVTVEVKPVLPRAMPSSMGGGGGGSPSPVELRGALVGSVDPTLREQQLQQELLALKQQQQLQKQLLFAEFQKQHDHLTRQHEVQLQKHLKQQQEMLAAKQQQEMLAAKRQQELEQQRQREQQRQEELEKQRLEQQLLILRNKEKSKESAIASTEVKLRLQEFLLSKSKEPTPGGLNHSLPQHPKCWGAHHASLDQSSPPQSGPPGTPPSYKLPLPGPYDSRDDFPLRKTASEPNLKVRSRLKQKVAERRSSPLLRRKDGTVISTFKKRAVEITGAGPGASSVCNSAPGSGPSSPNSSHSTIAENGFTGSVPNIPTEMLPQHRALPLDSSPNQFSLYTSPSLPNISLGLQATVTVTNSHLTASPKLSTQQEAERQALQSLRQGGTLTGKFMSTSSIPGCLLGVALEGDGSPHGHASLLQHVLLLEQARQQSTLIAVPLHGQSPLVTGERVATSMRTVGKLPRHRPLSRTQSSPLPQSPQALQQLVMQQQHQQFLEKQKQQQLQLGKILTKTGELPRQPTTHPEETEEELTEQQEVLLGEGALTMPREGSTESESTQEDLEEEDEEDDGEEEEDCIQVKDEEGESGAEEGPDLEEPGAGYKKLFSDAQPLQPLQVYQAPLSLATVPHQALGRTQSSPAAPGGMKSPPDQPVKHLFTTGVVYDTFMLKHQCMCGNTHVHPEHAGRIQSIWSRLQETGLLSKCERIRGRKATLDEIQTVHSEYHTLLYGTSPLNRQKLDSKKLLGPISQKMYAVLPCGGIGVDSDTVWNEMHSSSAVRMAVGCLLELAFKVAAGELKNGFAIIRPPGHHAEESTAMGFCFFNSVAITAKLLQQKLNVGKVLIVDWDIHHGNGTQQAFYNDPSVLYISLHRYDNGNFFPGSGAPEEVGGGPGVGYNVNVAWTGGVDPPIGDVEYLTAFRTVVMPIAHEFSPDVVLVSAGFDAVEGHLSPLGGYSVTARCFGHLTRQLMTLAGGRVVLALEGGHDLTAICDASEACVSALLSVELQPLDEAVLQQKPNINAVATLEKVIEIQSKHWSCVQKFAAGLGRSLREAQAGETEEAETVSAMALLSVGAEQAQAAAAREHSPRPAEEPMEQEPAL
Data set [6] is described as follows: Cytotoxicity against human MIHA cells. It counts as functional, cell-based.
The next data set has as its target Histone deacetylase 1 (Homo sapiens, UniProt Q13547). In words: Inhibition of HDAC1 (unknown origin).
Data set [7] is described as follows: Cytotoxicity against human A2780C/P cells. It counts as functional, cell-based.
Data set [8] has as its system MIA PaCa-2. In words: Antitumor activity against human MIAPaCa2 cells xenografted in Ncr mouse assessed as tumor growth inhibition at 100 mg/kg, po administered daily for 22 days measured on day 22 relative to vehicle-treated control. It counts as functional. Conditions: MIA PaCa-2, 528 h, read-out: TGI. A general note: Xenograft models place foreign cells or tissue in a host animal.

Another data set deals with Histone deacetylase 9 (Homo sapiens, UniProt Q9UKV0). Briefly: Inhibition of HDAC9 (unknown origin).
Chain of Histone deacetylase 9 (Q9UKV0 whole entry): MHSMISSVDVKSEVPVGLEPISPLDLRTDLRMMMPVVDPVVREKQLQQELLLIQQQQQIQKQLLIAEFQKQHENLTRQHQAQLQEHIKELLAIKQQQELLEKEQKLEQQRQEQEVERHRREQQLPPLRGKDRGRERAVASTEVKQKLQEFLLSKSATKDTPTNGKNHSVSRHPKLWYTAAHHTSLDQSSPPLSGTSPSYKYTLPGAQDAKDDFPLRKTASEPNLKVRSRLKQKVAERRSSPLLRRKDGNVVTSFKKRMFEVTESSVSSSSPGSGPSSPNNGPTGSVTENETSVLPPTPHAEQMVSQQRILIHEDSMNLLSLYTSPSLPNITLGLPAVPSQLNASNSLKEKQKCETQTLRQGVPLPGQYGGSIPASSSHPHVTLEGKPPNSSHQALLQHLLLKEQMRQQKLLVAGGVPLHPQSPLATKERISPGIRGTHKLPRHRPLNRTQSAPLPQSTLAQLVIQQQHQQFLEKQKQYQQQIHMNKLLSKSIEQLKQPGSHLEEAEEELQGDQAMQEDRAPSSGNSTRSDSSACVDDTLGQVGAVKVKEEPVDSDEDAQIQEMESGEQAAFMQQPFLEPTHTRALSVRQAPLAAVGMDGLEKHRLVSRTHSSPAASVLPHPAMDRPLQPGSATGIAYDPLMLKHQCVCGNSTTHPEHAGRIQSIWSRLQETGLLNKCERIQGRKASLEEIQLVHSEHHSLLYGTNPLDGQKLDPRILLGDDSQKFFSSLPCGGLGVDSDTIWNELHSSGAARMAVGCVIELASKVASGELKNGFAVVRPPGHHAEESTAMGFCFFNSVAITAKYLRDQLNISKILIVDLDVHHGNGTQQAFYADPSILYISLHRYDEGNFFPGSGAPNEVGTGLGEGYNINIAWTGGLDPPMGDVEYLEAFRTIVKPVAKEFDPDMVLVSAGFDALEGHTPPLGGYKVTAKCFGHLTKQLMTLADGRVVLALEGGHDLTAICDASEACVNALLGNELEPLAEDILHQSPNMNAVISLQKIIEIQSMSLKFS
Data set [9] has as its system NCI-H69. Briefly: Cytotoxicity against […] expressing human H69 cells. It counts as functional, cell-based.
Data set [10] in a line: Cytotoxicity against human VCaP cells. The class given is functional, cell-based.
A further data set deals with T2, Histone deacetylase 11 (Homo sapiens, UniProt Q96DB2).
T2 sequence (Q96DB2 whole entry): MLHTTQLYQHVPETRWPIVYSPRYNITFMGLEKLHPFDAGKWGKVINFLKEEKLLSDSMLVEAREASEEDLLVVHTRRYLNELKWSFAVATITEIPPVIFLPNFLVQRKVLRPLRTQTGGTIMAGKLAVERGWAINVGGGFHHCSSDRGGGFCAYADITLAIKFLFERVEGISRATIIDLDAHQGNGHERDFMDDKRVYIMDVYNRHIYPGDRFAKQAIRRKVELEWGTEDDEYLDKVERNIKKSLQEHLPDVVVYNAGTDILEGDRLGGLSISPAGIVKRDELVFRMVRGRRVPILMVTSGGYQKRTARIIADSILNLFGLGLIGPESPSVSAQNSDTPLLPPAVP
In words: Inhibition of HDAC11 (unknown origin).

The nature of data set [11]: Cytotoxicity against human SNU880 cells. The class given is functional, cell-based.
A further data set relates to MDA-MB-231. Briefly: Cytotoxicity against human MDA-MB-231 cells. The class given is functional, cell-based.
The test system of a further data set is Mus musculus. Briefly: Toxicity in human MiaPaCa2 cells xenografted Ncr mouse at 50 to 100 mg/kg, po administered daily for 22 days. The class given is organism-based. On the set-up: dose 50-100 mg/kg, route oral. Conditions: in vivo, 528 h.
The next data set concerns A2780. In words: Cytotoxicity against human A2780 cells. It counts as functional, cell-based.
A short description of data set [12]: Cytotoxicity against human MV522 cells. It counts as functional, cell-based.
A further data set concerns NCI-H295R. Briefly: Cytotoxicity against human NCI-H295R cells. The class given is functional, cell-based.
The target in the next data set is Histone deacetylase 4 (Homo sapiens, UniProt P56524). Briefly: Inhibition of HDAC4 (unknown origin).
Chain of Histone deacetylase 4 (P56524 whole entry): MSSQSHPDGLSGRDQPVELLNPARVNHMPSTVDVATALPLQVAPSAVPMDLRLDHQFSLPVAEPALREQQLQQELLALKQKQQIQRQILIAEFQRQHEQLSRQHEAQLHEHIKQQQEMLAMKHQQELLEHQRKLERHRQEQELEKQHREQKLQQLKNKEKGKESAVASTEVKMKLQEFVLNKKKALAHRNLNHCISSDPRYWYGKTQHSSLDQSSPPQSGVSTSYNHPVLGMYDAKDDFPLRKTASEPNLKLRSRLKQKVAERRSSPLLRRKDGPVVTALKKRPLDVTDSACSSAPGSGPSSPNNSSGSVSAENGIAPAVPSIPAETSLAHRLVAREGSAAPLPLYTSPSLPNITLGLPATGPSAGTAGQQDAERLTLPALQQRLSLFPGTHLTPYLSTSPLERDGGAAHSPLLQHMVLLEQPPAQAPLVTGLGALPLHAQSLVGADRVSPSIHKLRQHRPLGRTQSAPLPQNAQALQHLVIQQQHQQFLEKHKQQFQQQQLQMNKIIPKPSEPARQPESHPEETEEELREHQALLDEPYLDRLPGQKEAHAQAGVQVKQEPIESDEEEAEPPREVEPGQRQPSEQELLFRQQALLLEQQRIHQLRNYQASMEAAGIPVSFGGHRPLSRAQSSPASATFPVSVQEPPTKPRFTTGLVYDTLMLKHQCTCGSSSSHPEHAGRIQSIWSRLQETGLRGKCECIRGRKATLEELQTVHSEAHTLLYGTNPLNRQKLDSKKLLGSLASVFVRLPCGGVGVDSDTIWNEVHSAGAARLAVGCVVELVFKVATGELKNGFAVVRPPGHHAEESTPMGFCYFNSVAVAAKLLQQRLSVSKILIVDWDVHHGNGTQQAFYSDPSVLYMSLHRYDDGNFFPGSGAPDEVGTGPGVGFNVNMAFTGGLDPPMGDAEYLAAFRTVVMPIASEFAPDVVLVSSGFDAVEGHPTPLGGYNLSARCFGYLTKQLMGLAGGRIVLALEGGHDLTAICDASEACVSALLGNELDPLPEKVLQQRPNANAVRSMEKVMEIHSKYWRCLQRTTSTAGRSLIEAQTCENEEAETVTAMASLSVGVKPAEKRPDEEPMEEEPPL
The target in data set [13] is T3, Protein deacetylase HDAC6 (Homo sapiens, UniProt Q9UBN7).
T3 sequence (Q9UBN7 whole entry): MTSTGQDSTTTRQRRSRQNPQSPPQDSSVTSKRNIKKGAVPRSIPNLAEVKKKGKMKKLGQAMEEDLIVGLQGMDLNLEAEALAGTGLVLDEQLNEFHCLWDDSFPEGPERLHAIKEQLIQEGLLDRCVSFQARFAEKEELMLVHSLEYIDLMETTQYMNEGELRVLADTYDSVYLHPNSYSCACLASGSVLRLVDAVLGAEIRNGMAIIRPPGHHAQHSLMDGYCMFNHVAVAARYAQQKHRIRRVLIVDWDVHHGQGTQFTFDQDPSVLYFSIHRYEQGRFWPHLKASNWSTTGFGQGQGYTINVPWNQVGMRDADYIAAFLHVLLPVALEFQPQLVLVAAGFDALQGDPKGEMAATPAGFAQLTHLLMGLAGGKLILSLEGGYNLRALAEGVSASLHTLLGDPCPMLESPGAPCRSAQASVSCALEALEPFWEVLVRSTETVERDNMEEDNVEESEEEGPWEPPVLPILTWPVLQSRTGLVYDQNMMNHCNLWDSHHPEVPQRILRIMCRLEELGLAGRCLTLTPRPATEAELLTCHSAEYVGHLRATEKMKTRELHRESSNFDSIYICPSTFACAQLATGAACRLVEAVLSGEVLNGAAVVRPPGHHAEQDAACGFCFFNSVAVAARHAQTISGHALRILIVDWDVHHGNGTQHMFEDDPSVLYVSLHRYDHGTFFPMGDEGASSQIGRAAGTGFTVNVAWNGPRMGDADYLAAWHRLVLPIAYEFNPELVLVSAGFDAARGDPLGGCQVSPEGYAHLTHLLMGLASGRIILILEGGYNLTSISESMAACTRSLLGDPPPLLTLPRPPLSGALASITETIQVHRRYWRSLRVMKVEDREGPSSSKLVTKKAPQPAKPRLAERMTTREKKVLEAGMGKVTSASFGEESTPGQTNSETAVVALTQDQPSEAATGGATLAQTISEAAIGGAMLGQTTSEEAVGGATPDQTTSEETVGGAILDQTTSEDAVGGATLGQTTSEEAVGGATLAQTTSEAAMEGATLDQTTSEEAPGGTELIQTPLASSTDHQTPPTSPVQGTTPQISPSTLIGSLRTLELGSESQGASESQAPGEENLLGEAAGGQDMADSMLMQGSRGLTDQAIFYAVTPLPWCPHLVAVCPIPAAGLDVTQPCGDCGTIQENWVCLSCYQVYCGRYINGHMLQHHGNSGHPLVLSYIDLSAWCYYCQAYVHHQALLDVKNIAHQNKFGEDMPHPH
In words: Inhibition of HDAC6 (unknown origin).

A further data set concerns the target T4, Histone deacetylase 8 (Homo sapiens, UniProt Q9BY41).
T4 sequence (Q9BY41 whole entry): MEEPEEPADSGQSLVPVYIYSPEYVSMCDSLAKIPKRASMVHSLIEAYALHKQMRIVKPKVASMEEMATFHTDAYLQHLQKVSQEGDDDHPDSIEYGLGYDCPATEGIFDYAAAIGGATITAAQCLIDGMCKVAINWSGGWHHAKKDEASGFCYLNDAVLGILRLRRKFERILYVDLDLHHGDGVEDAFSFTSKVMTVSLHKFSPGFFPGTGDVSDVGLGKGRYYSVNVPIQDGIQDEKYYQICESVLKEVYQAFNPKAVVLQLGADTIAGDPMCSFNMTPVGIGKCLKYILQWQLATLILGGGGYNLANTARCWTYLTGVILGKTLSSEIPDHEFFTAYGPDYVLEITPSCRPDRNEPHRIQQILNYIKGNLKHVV
In words: Inhibition of HDAC8 (unknown origin).

The subject of data set [14] is MIA PaCa-2. Briefly: Antitumor activity against human MIAPaCa2 cells xenografted in Ncr mouse assessed as tumor growth inhibition at 80 mg/kg, ip administered daily for 22 days measured on day 25 relative to vehicle-treated control. The class given is functional, organism-based. On the set-up: dose 80 mg/kg.

Active and inactive are the calls of the source. The calls are words filed in the database; no cut-off is given here.

Chain of Histone deacetylase 1 (Q13547 whole entry): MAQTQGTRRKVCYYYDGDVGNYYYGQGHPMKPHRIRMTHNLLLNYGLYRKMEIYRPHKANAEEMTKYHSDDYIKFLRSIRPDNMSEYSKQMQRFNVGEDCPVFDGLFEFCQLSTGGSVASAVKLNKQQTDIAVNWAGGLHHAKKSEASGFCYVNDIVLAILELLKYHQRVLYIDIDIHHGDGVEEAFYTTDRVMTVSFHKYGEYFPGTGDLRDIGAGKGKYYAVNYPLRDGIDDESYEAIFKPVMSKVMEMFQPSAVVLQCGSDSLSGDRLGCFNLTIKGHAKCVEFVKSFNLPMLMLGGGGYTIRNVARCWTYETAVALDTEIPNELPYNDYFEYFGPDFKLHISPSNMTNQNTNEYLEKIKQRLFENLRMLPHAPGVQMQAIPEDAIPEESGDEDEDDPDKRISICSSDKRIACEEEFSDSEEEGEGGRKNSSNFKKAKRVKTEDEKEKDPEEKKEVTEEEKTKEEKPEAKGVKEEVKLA
Chain of Histone deacetylase 3 (O15379 whole entry): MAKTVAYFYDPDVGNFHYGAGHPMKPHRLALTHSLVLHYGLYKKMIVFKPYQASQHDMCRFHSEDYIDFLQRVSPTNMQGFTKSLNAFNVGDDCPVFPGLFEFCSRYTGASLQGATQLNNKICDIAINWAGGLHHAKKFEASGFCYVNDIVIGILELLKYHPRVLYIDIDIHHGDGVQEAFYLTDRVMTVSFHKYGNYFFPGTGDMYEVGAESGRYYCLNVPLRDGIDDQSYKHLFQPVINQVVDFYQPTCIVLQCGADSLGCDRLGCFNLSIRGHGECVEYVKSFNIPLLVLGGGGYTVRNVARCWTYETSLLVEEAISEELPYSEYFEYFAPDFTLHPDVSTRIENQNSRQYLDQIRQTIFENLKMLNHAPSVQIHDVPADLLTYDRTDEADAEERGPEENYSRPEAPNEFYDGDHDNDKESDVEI

As a reminder, the IC50 is the point on the concentration scale where inhibition reaches its midpoint. A lower IC50 goes with greater potency. Consider `O=C(CCCCCCc1nc2ccc(F)cc2[nH]1)NO`, for which the IC50 in the data set on SK-OV-3 amounted to 1.9 µM.
Still for that read-out and setting: next, `O=C(CCCCCc1nc2ccccc2[nH]1)NO`: 11 µM.
Same read-out and setting: as for `O=C(CCCCCCc1nc2ccccc2n1-c1ccccc1)NO`, the figure is above 20 µM; as for `O=C(CCCCCCc1nc2ccccc2n1C1CCCC1)NO`, 4.8 µM.
The same measure, in the same setting: next, `CN(C)c1ccc2nc(CCCCCCC(=O)NO)[nH]c2c1`: 1.2 µM; `Cn1c(CCCCCCC(=O)NO)nc2ccccc21`: 3 µM.
With `O=C(CCCCCCc1nc2ccccc2n1C1CC1)NO`, half-maximal inhibition with SK-OV-3 (IC50) was put at 9.5 µM.
On the same count and under the same terms, next, `O=C(CCCCCCc1nc2ccc(-c3cncnc3)cc2[nH]1)NO`: 2.6 µM; `CN(C)c1ccc(-c2ccc3nc(CCCCCCC(=O)NO)[nH]c3c2)cc1`: 6.6 µM.
On the same count and under the same terms, as for `O=C(CCCCCCc1nc2ccncc2[nH]1)NO`, the figure is above 20 µM; as for `O=C(CCCCCCc1nc2ccc(Cl)cc2[nH]1)NO`, 0.32 µM.
`O=C(CCCCCCC(=O)Nc1ccccc1)NO` [VORINOSTAT]: the IC50 (with SK-OV-3; in [1]) was 2.3 µM throughout.
Consider `O=C(CCCCCCc1nc2ccc(Br)cc2[nH]1)NO`, for which the IC50 in data set [2] was found to be 0.61 µM; in [3], 0.003 µM; in the data set with NCI-H69 [4], 0.15 µM; in data set [5] it was 0.56 µM; at Histone deacetylase 2, 0.0341 µM; against Histone deacetylase 3, 0.0064 µM. For the same molecule, the IC50 is 0.0025 µM against Histone deacetylase 5; 0.26 µM with SK-OV-3; 0.23 µM in [6]; 0.0202 µM against Histone deacetylase 1; 2 µM in data set [7]; 0.0011 µM against Histone deacetylase 9. For the same molecule, the 50% inhibitory concentration (IC50) came out at 0.17 µM in the data set with NCI-H69 [9]; 0.089 µM in data set [1]; 2.4 µM in data set [10]; 0.0334 µM on Histone deacetylase 11; 0.98 µM in data set [11]; 0.82 µM in the data set on MDA-MB-231. For the same molecule, the IC50 amounted to 1.9 µM in the data set on A2780; 2.2 µM in data set [12]; 0.18 µM with NCI-H295R; 0.279 µM against Histone deacetylase 4; 0.0019 µM in data set [13]; 0.282 µM at Histone deacetylase 8. For the same molecule, in the data set on MIA PaCa-2 [8], the inhibition in vivo at 100 mg/kg is 74%. Moreover, in the data set on Mus musculus, the Activity entry is recorded as “Non-toxic”.
For `COc1ccc2nc(CCCCCCC(=O)NO)[nH]c2c1`, the IC50 with SK-OV-3 stood at 11 µM. In other words, the double-digit micromolar range.
Still for that read-out and setting: next, `O=C(CCCCCCc1nc2ccc(-c3ccc(F)cc3)cc2[nH]1)NO`: 1.2 µM.
Same read-out and setting: next, `COc1ccc(-c2ccc3nc(CCCCCCC(=O)NO)[nH]c3c2)cc1`: 3.1 µM; `O=C(CCCCCCc1nc2ccc(-c3cccc(F)c3)cc2[nH]1)NO`: 1.5 µM.
On the same count and under the same terms, next, `O=C(CCCCCCc1nc2cccc(Cl)c2[nH]1)NO`: 10 µM.
For `Nc1ccn([C@@H]2O[C@H](CO)[C@@H](O)C2(F)F)c(=O)n1`, the TGI entry in the data set with MIA PaCa-2 [14] is “Active”.
Take `O=C(CCCCCCc1nc2ccc(-c3ccccc3)cc2[nH]1)NO`: in the data set with SK-OV-3, the 50% inhibitory concentration (IC50) amounted to 0.1 µM.
Still for that read-out and setting: as for `O=C(CCCCCCc1nc2ccc(-c3ccccc3F)cc2[nH]1)NO`, the figure is 7.4 µM; as for `O=C(CCCCCCc1nc2ccccc2[nH]1)NO`, 2.7 µM.

(Values after ChEMBL document CHEMBL2413017, “Identification of novel HDAC inhibitors through cell based screening and their evaluation as potential anticancer agents” (Bioorg Med Chem Lett, 2013).)
